From ChEMBL document CHEMBL4371055, “Bioactive polyoxygenated cembranoids from a novel Hainan chemotype of the soft coral Sinularia flexibilis” (Bioorg Med Chem Lett, 2019)
Values belong to the compound of their own block, whether it stands above or below them.

What was measured:
[1] = system: HT-29; test: Cytotoxicity against human HT-29 cells after 48 hrs by sulforhodamine B assay; type: functional, cell-based; settings: HT-29, 48 h
[2] = system: RAW264.7; test: Antiinflammatory activity in mouse RAW264.7 cells assessed as inhibition of LPS-induced TNFalpha production pretreated for 30 mins followed by LPS stimulation for 24 hrs by ELISA; type: functional, cell-based
[3] = system: SNU-398; test: Cytotoxicity against human SNU398 cells after 48 hrs by sulforhodamine B assay; type: functional, cell-based; settings: SNU-398, 48 h
[4] = Selectivity index, ratio of CC50 for mouse RAW264.7 cells to IC50 for inhibition of LPS-induced TNFalpha production in mouse RAW264.7 cells; type: toxicity, cell-based; settings: read-out: Ratio CC50/IC50
[5] = Cytotoxicity against mouse RAW264.7 cells assessed as reduction in cell viability after 24 hrs by CCK8 assay; type: cell-based
[6] = system: CAPAN-1; test: Cytotoxicity against human Capan1 cells after 48 hrs by sulforhodamine B assay; type: functional, cell-based; settings: CAPAN-1, 48 h
[7] = system: A549; test: Cytotoxicity against human A549 cells after 48 hrs by sulforhodamine B assay; type: functional, cell-based; settings: A549, 48 h

IC50 [2]: 38.9 µM
Compound: C=C(C(=O)OCCCC)[C@H]1CC[C@](C)(O)C(=O)CC/C(C)=C/CC[C@]2(C)O[C@@H]2C1
IC50 [1]: > 50 µM
IC50 [3]: > 50 µM
selectivity ratio [4]: > 1.3
CC50 at 24 h [5]: > 50 µM
IC50 [6]: > 50 µM
IC50 [7]: > 50 µM

IC50 [2]: 4.2 µM
Compound: C=C(C(=O)OC)[C@H]1CC[C@@]2(C)O[C@@H]2CC/C(C)=C/CC[C@@]2(C)O[C@H]2C1
IC50 [1]: > 50 µM
IC50 [3]: > 50 µM
selectivity ratio [4]: > 11.9
CC50 at 24 h [5]: > 50 µM
IC50 [6]: > 50 µM
IC50 [7]: > 50 µM

IC50 [2]: > 50 µM
Compound: C=C(C(=O)OCCCC)[C@@H]1CC[C@@](C)(O)[C@H](O)CC/C(C)=C/CC[C@]2(C)O[C@H]2C1
IC50 [1]: > 50 µM
IC50 [3]: > 50 µM
CC50 at 24 h [5]: > 50 µM
IC50 [6]: > 50 µM
IC50 [7]: > 50 µM

IC50 [2]: 2.7 µM
Compound: C=C1C(=O)O[C@]2(C)CC[C@@H]1C[C@@H]1O[C@@]1(C)CC/C=C(\C)CC[C@H]2OC(C)=O
IC50 [1]: 32.6 µM
IC50 [3]: 24.9 µM
selectivity ratio [4]: > 18.5
CC50 at 24 h [5]: > 50 µM
IC50 [6]: 28.7 µM
IC50 [7]: > 50 µM

IC50 [2]: 20.7 µM
Compound: C=C(C(=O)OCCCC)[C@@H]1CC[C@@](C)(O)[C@@H]2CC[C@](C)(O2)[C@@H](OC(C)=O)CC[C@]2(C)O[C@H]2C1
IC50 [1]: > 50 µM
IC50 [3]: > 50 µM
selectivity ratio [4]: > 2.4
CC50 at 24 h [5]: > 50 µM
IC50 [6]: > 50 µM
IC50 [7]: > 50 µM

IC50 [2]: 13.3 µM
Compound: C=C(C(=O)OC)[C@H]1CC[C@](C)(O)C(=O)CC/C(C)=C/CC[C@]2(C)O[C@@H]2C1
IC50 [1]: > 50 µM
IC50 [3]: > 50 µM
selectivity ratio [4]: > 3.8
CC50 at 24 h [5]: > 50 µM
IC50 [6]: > 50 µM
IC50 [7]: > 50 µM

IC50 [2]: > 50 µM
Compound: C=C(C)[C@@H]1CC[C@]2(C)O[C@H]2CC/C(C)=C/CC[C@]2(C)O[C@H]2C1
IC50 [1]: > 50 µM
IC50 [3]: > 50 µM
CC50 at 24 h [5]: > 50 µM
IC50 [6]: > 50 µM
IC50 [7]: > 50 µM

IC50 [2]: > 50 µM
Compound: C=C1C(=O)O[C@]2(C)CC[C@@H]1C[C@@H]1O[C@@]1(C)CC/C=C(\C)CCC2=O
IC50 [1]: 22.7 µM
IC50 [3]: 8.9 µM
CC50 at 24 h [5]: > 50 µM
IC50 [6]: 9.4 µM
IC50 [7]: 27.4 µM

IC50 [2]: 8.7 µM
Compound: C[C@@H]1C[C@H]2[C@@H]3CCC4=CC(=O)C=C[C@]4(C)[C@@]3(F)[C@@H](O)C[C@]2(C)[C@@]1(O)C(=O)CO [DEXAMETHASONE]
selectivity ratio [4]: > 5.7
CC50 at 24 h [5]: > 50 µM

Compound: CC(=O)O[C@H]1C(=O)[C@@]2(C)[C@H]([C@H](OC(=O)c3ccccc3)[C@]3(O)C[C@H](OC(=O)[C@H](O)[C@@H](NC(=O)c4ccccc4)c4ccccc4)C(C)=C1C3(C)C)[C@]1(OC(C)=O)CO[C@@H]1C[C@@H]2O [PACLITAXEL]
IC50 [3]: 0.0006 µM
IC50 [6]: 0.0033 µM

IC50 [2]: 4.7 µM
Compound: C=C1C(=O)O[C@]2(C)CC[C@@H]1C[C@@H]1O[C@@]1(C)CC/C=C(\C)CC[C@@H]2O [SINULARIOLIDE]
IC50 [1]: 33.6 µM
IC50 [3]: 24.7 µM
selectivity ratio [4]: > 10.6
CC50 at 24 h [5]: > 50 µM
IC50 [6]: 26.1 µM
IC50 [7]: > 50 µM
